Columns and labels:
Experiment in all cases: biochemical
Parameters in all cases: Invitrogen kinase panel: Z'Lyte activity (ATP at Km) or LanthaScreen competitive ATP-site binding, percent inhibition
MST3 = target: T1, MST3 (Homo sapiens, UniProt Q9Y6E0)
T1 construct: gene STK24

MST1 = target: T2, MST1 (Homo sapiens, UniProt Q13043)
T2 construct: gene STK4

CLK2 = CLK2 (Homo sapiens, UniProt P49760)
EGFR = EGFR (Homo sapiens, UniProt P00533)
DYRK3 = DYRK3 (Homo sapiens, UniProt O43781)
LIMK1 = LIMK1 (Homo sapiens, UniProt P53667)
CDK7/cyclinH = CDK7/cyclinH (Homo sapiens, UniProt P50613)
Mer = target: T3, Mer (Homo sapiens, UniProt Q12866)
T3 construct: gene MERTK

ARK5 = target: T4, ARK5 (Homo sapiens, UniProt O60285)
T4 construct: gene NUAK1

JAK2 = JAK2 (Homo sapiens, UniProt O60674)
JAK2, sequence (O60674 whole entry): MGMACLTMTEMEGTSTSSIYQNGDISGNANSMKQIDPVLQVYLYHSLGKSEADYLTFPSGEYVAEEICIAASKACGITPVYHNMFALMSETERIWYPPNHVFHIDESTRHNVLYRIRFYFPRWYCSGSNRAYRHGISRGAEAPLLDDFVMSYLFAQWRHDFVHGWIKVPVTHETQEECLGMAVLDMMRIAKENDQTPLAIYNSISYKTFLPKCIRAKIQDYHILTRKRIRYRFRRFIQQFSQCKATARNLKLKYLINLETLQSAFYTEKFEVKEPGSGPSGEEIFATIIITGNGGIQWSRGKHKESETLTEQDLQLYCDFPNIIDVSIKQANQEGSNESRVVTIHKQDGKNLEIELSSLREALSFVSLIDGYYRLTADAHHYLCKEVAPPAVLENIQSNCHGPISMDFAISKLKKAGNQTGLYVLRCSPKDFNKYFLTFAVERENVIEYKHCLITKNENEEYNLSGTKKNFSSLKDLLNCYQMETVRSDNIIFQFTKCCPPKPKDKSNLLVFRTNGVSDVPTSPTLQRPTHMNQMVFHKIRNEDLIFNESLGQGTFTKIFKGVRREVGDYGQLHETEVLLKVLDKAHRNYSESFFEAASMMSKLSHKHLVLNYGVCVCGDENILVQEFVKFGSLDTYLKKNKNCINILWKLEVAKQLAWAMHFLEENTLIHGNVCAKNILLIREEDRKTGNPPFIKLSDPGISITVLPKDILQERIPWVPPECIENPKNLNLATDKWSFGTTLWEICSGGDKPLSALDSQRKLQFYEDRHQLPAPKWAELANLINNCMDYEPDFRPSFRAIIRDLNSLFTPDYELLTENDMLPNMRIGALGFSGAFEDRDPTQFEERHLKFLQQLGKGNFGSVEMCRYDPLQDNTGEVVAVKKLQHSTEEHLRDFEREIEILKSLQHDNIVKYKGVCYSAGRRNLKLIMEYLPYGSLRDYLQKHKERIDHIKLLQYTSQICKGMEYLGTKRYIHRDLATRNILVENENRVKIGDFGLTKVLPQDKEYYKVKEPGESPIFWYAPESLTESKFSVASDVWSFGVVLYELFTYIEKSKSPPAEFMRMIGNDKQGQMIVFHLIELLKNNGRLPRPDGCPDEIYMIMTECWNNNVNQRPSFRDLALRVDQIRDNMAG

Flt1 = Flt1 (Homo sapiens, UniProt P17948)
AKT1 = AKT1 (Homo sapiens, UniProt P31749)
ACVR2B = ACVR2B (Homo sapiens, UniProt Q13705)
ACVR2B, sequence (Q13705 whole entry): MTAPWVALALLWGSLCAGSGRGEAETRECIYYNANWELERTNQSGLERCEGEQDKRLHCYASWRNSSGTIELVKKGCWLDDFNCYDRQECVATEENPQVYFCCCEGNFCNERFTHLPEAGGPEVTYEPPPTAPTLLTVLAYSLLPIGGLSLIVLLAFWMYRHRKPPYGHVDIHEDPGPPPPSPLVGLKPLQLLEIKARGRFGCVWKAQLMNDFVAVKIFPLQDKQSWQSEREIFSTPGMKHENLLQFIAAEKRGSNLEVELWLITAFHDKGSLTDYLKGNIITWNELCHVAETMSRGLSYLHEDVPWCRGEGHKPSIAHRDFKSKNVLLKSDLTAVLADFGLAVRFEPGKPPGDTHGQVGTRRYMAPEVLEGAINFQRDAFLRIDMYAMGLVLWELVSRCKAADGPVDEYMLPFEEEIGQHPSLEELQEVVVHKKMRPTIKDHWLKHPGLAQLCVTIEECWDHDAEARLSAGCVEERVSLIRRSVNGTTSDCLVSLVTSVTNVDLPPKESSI

DCAMKL2 = target: T5, DCAMKL2 (Homo sapiens, UniProt Q8N568)
T5 construct: gene DCLK2

CK1_epsilon1 = target: T6, CK1_epsilon1 (Homo sapiens, UniProt P49674)
T6 construct: gene CSNK1E; epsilon 1

MEKK2 = target: T7, MEKK2 (Homo sapiens, UniProt Q9Y2U5)
T7 construct: gene MAP3K2

MAP4K4 = MAP4K4 (Homo sapiens, UniProt O95819)
MRCK_alpha = target: T8, MRCK_alpha (Homo sapiens, UniProt Q5VT25)
T8 construct: gene CDC42BPA

Ron = target: T9, Ron (Homo sapiens, UniProt Q04912)
T9 construct: gene MST1R
T9 sequence (Q04912 whole entry): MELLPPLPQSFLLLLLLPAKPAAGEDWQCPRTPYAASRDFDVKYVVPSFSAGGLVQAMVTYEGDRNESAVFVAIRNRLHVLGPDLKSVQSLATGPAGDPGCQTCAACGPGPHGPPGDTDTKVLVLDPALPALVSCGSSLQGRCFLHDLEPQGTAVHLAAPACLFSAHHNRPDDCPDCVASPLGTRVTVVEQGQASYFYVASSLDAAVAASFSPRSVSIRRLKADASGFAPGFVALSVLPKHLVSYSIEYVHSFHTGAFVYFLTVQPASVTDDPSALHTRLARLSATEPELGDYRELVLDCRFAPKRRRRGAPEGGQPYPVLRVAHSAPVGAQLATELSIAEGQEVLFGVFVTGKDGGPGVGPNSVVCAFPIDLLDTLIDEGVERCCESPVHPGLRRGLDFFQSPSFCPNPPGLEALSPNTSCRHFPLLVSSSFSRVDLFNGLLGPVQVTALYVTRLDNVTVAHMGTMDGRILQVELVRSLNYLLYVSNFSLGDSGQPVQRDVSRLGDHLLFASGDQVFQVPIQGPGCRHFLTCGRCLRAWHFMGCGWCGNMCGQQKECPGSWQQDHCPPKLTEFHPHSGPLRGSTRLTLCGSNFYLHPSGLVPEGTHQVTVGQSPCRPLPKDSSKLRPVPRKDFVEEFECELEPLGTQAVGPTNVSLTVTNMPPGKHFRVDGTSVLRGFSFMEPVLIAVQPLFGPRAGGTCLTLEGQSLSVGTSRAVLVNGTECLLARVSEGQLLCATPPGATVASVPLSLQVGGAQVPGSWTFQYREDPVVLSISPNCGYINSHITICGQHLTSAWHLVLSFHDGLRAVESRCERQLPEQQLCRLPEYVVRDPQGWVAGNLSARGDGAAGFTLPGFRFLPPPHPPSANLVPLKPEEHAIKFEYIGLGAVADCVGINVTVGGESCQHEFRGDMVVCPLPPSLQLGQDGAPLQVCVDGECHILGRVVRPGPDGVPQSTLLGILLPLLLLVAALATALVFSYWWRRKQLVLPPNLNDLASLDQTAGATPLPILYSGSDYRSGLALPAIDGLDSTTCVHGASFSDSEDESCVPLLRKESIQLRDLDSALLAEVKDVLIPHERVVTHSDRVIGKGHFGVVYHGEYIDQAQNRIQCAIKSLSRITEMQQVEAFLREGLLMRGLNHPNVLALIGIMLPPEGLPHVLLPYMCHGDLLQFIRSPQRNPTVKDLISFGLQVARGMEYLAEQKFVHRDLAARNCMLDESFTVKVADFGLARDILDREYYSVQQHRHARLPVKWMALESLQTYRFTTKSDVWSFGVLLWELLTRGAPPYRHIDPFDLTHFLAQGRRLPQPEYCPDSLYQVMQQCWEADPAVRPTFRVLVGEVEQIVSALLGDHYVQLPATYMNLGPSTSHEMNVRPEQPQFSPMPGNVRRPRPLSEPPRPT

PKC_theta = target: T10, PKC_theta (Homo sapiens, UniProt Q04759)
T10 construct: gene PRKCQ

ACVR1B = ACVR1B (Homo sapiens, UniProt P36896)
ACVR1B, sequence (P36896 whole entry): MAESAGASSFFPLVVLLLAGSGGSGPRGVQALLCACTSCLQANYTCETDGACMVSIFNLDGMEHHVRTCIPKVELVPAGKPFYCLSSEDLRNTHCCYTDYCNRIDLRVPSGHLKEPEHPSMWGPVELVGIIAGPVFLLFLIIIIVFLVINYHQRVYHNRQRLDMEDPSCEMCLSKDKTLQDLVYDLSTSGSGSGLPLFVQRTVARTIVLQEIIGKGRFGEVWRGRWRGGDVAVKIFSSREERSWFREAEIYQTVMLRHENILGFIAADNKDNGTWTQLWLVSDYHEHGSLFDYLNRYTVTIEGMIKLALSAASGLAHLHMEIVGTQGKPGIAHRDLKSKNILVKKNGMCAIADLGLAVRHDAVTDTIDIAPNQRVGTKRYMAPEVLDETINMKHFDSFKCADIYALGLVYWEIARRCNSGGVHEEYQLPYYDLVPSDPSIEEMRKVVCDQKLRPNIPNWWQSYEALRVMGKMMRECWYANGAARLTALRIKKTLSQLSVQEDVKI

TAO2 = target: T11, TAO2 (Homo sapiens, UniProt Q9UL54)
T11 construct: gene TAOK2

Ret = Ret (Homo sapiens, UniProt P07949)
BMPR1A = BMPR1A (Homo sapiens, UniProt P36894)
BMPR1A, sequence (P36894 whole entry): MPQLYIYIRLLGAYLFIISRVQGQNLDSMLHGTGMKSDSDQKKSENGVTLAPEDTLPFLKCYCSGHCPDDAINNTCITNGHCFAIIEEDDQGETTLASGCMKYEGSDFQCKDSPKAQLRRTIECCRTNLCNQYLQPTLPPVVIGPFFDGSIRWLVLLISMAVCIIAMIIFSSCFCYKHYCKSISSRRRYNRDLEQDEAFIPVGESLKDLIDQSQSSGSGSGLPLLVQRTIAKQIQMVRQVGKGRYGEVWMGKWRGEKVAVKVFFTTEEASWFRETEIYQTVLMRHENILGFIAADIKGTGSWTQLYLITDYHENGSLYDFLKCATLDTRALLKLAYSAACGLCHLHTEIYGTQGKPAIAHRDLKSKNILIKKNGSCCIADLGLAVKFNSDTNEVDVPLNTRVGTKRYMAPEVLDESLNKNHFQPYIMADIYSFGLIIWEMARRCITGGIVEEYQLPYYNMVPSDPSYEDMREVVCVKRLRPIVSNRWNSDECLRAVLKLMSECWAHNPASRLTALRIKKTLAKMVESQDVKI

PrKX = PrKX (Homo sapiens, UniProt P51817)

T2 sequence (Q13043 whole entry): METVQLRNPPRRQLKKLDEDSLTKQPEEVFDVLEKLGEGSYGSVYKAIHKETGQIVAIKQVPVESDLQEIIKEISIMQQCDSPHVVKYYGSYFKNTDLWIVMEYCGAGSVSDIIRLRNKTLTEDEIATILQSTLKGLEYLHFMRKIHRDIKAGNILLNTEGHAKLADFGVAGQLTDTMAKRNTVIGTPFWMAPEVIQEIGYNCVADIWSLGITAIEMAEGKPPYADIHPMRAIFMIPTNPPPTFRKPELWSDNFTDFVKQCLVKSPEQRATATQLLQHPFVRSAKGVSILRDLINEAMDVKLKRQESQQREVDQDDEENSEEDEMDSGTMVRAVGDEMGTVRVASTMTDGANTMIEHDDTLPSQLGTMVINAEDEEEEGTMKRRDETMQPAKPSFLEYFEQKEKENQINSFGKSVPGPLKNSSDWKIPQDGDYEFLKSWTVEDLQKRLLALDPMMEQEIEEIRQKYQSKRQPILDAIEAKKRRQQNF
T1 sequence (Q9Y6E0 whole entry): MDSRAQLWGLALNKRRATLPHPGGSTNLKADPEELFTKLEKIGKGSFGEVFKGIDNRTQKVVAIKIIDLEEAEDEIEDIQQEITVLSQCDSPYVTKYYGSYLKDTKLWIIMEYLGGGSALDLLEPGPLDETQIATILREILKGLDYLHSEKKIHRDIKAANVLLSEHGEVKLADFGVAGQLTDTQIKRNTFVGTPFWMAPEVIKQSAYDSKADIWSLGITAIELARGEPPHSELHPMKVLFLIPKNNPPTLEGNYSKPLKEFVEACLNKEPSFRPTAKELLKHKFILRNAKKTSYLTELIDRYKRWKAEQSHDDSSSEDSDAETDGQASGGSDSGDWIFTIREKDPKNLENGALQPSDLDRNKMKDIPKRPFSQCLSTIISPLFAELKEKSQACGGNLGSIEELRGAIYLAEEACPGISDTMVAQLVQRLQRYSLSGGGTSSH

Row | SMILES | inhibition at 1 µM (MST3) | inhibition at 1 µM (MST1) | inhibition at 1 µM (CLK2) | inhibition at 1 µM (EGFR) | inhibition at 1 µM (DYRK3) | inhibition at 1 µM (LIMK1) | inhibition at 1 µM (CDK7/cyclinH) | inhibition at 1 µM (Mer) | inhibition at 1 µM (ARK5) | inhibition at 1 µM (JAK2) | inhibition at 1 µM (Flt1) | inhibition at 1 µM (AKT1) | inhibition at 1 µM (ACVR2B) | inhibition at 1 µM (DCAMKL2) | inhibition at 1 µM (CK1_epsilon1) | inhibition at 1 µM (MEKK2) | inhibition at 1 µM (MAP4K4) | inhibition at 1 µM (MRCK_alpha) | inhibition at 1 µM (Ron) | inhibition at 1 µM (PKC_theta) | other results
1 | CCOC(=O)Nc1cccc2c(Oc3ncccc3-c3ccnc(N[C@H]4CCCNC4)n3)c(C)ccc12 [G-1749] | -2% | 1% | 18.5% | -6% | 3.5% | 4.5% | 4.5% | 4.5% | 12% | 2.5% | -1% | -16.5% | 18.5% | 3% | 37% | -0.5% | 31% | 4.5% | -6% | 1.5% | inhibition at 1 µM (ACVR1B): 3%; inhibition at 1 µM (TAO2): 72.5%; inhibition at 1 µM (Ret): 10%; inhibition at 1 µM (BMPR1A): 0%; inhibition at 1 µM (PrKX): -0.5%
2 | CC#CC(=O)Nc1cccc2c(Oc3ncccc3-c3ccnc(N[C@H]4CCCNC4)n3)c(C)ccc12 [G-7658] | -8.5% | -0.5% | 23% | -9% | 1% | 15% | 7.5% | 4.5% | 8% | 3% | -1.5% | -13.5% | 8.5% | 2% | 36% | 1% | 21.5% | 5% | 4% | 0% | inhibition at 1 µM (ACVR1B): -0.5%; inhibition at 1 µM (TAO2): 74%; inhibition at 1 µM (Ret): 8%; inhibition at 1 µM (BMPR1A): 2%; inhibition at 1 µM (PrKX): -1.5%
